Article PMC8291071, “Tertiary sulphonamide derivatives as dual acting small molecules that inhibit LSD1 and suppress tubulin polymerisation against liver cancer” (Journal of Enzyme Inhibition and Medicinal Chemistry, 2021)
Entries after “also recorded” stand apart in the source; their conditions may differ.

Assays:
SNU-475 = assay: MTT antiproliferative assay, SNU-475 cells; type: cell-based; conditions: Homo sapiens, 48 h
Bel-7402 = assay: MTT antiproliferative assay, Bel-7402 cells; type: cell-based; conditions: Homo sapiens, 48 h
Protocol: (§1) Cell lines were purchased from Servicebio (Wuhan, China) and cultured in RPMI1640 (Servicebio, Wuhan, China) with 10% foetal bovine serum and 1% antibiotic agent (Servicebio, Wuhan, China) at 37 °C. With the treatment of synthetic compounds, cells were cultured for 48 h and added with MTT solution (Servicebio, Wuhan, China). After 4 h, medium was removed and DMSO was added to culture for 30 min. Finally, the absorbance value was obtained by a microplate reader (Multiskan Sky, Thermo Fisher, Shanghai, China).
(§2) In order to discover the potent anti-liver cancer agents, all tertiary sulphonamide analogues were evaluated for their anticancer activity in vitro against liver cancer cell lines ([…], HepG-2 and Bel-7402). Cell lines were treat with different tertiary sulphonamide derivatives 16 and 17a∼17f for 48 h to obtain IC50 values. In this work, 5-fluorouracil as an well-known antitumor drug was selected as the control agent.

HepG-2 = assay: MTT antiproliferative assay, HepG-2 cells; type: cell-based; conditions: for IC50: Homo sapiens, HepG2, 48 h, MTT
Protocol: as §1, §2

tubulin = assay: Inhibitory activity of tubulin polymerisation in vitro; type: biochemical; conditions: fluorescence intensity
LSD1 = LSD1 (Homo sapiens, UniProt O60341); assay: LSD1 enzymatic assay; conditions: for inhibition at 0.2 µM: read-out: inhibitory rate against LSD1
L-02 cells = assay: Cytotoxicity against normal liver cell line L-02; type: cell-based
Protocol: as §1

[1] = system: interphase microtubules in Bel-7402 cells; assay: Immunofluorescence of interphase microtubules in Bel-7402 cells; type: cell-based; conditions: 50 nM
Protocol: Liver cancer Bel-7402 cells were cultured on the slices for 24 h and treated with tertiary sulphonamide derivatives for 48 h. Then, Bel-7402 cells were fixed by 4% paraformaldehyde solution (Shanghai Yuanye Bio-Technology Co., Ltd, Shanghai, China) for 30 min. Bovine albumin was used to block the system for 30 min. Bel-7402 cells were cultured with β-tubulin and incubated for 24 h at 4 °C. Finally, 4′,6-diamidino-2-phenylindole (DAPI) was added in a dark room to obtain images of immunostaining (Confocal laser scanning microscope, FV3000RS, Beijing, China).

Bel-7402&shControl cells = assay: Cell viability of control Bel-7402 cells; type: cell-based
[2] = system: H3K9me1/2 in Bel-7402 cells; assay: Western blot of H3K9me1 and H3K9me2 in Bel-7402 cells; type: cell-based; conditions: 48 h
Protocol: Liver cancer Bel-7402 cells were cultured for 24 h and treated with tertiary sulphonamide derivative 17a for 48 h at 37 °C. Protein lysates were harvested from the treated Bel-7402 cells. Nitrocellulose membrane was used to perform polyacrylamide gelelectrophoresis. H3K9me1 and H3K9me2 (Servicebio, Wuhan, China) were treated with the nitrocellulose membrane at 4 °C for 12 h. GAPDH as the secondary antibody was incubated for 1 h at room temperature (Shanghai Yuanye Bio-Technology Co., Ltd, Shanghai, China).
(§3) LSD1 could specifically demethylate mono- and dimethyl-lysine on histone H3 H3K9me1/2), leading to the transcriptional repression or activation of target genes. Thus, the expression levels of H3K9me1/2 in liver cancer Bel-7402 cells were explored with the treatment of 17a. […] The migration effects of tertiary sulphonamide derivative 17a were also investigated.

Bel-7402 cells = assay: Transwell migration assay; type: cell-based; conditions: 48 h
Protocol: Liver cancer Bel-7402 cells were cultured in the upper chambers of a Transwell 24-well plate (Servicebio, Wuhan, China) for 24 h. 1% FBS and 20% FBS were added into the upper chambers and lower chambers respectively. […] Then, all medium was removed and Bel-7402 cells were fixed with ethanol for 30 min. Finally, Bel-7402 cells from the upper chambers were stained with haematoxylin solution (Servicebio, Wuhan, China) for 30 min.
as §3

Bel-7402 xenograft = Bel-7402 xenograft antitumour study; conditions: 60 mg/kg, intragastric administration, 21 days
Protocol: (§4) Xenograft models using Bel-7402 cells was established in nude mice (Jiangsu ALF Biotechnology Co., LTD, Jiangsu, China). Then, mice-bearing tumours were divided into two groups (vehicle and 60 mg/kg group). […] Tumour volume and tumour weight of treated mice were measured.
(§5) Xenograft tumours were produced by the subcutaneous implantation of liver cancer Bel-7402 cells.

[3] = system: heart, liver, spleen, lung and kidney; assay: Haematoxylin & eosin staining of organs of treated mice; conditions: 60 mg/kg, intragastric, 21 days, H&E staining
Protocol: as §4, §5

Compound	IC50 (SNU-475)	IC50 (Bel-7402)	IC50 (HepG-2)	IC50 (tubulin)	melting point	IC50 (LSD1)	fold activity loss against LSD1 (LSD1; methyl group replaced with acetyl group (17d VS. 17f as printed))	inhibition at 0.2 µM (LSD1)	cytotoxicity against L-02 cells (L-02 cells)	depolymerisation of interphase microtubules [1]	cell viability of Bel-7402&shControl cells (Bel-7402&shControl cells)	expression levels of H3K9me1 and H3K9me2 [2]	migration of Bel-7402 cells (Bel-7402 cells)	reduction of tumour weight (Bel-7402 xenograft)	tumour growth (Bel-7402 xenograft)	toxicity of organs (heart, liver, spleen, lung and kidney) [3]	fold activity increase against HepG-2 cells (HepG-2; 17b VS. 17c)
COc1ccc(S(=O)(=O)N(CCSC(=S)N2CCN(C(C)=O)CC2)c2cc(OC)c(OC)c(OC)c2)cc1 [Compound 17d, 2-((4-Methoxy-N-(3,4,5-trimethoxyphenyl)phenyl)sulfonamido)ethyl-4-acetylpiperazine-1-carbodithioate]	5.06 ± 0.68 µM	1.58 ± 1.02 µM	3.29 ± 0.84 µM	1.78 µM	152 to 154 °C	> 0.2 µM	over 3 fold	46%	–	–	–	–	–	–	–	–	–
COc1ccc(S(=O)(=O)N(CCSC(=S)N2CCN(C)CC2)c2cc(OC)c(OC)c(OC)c2)cc1 [Compound 17a, 2-((4-Methoxy-N-(3,4,5-trimethoxyphenyl)phenyl)sulfonamido)ethyl-4-methylpiperazine-1-carbodithioate]	0.73 ± 0.16 µM	0.32 ± 0.08 µM	0.57 ± 0.07 µM	–	–	–	–	–	> 64 µM	more pronounced depolymerisation effects	potently inhibited the cell viability	increased the expression levels of H3K9me1 and H3K9me2	concentration-dependently inhibited migration; also recorded: significantly inhibited the migration	42.97%	effectively inhibited the tumour growth in vivo	no apparent toxicity of organs	–
COc1ccc(S(=O)(=O)N(CCBr)c2cc(OC)c(OC)c(OC)c2)cc1 [Compound 16, N-(2-bromoethyl)-4-methoxy-N-(3,4,5-trimethoxyphenyl)benzenesulfonamide]	> 20 µM	> 20 µM	> 20 µM	–	116 to 118 °C	–	–	–	–	–	–	–	–	–	–	–	–
O=c1[nH]cc(F)c(=O)[nH]1 [5-Fluorouracil, reference compound]	26.47 ± 0.16 µM	15.1 ± 1.28 µM	12.2 ± 0.68 µM	–	–	–	–	–	–	–	–	–	–	–	–	–	–
CCN1CCN(C(=S)SCCN(c2cc(OC)c(OC)c(OC)c2)S(=O)(=O)c2ccc(OC)cc2)CC1 [Compound 17b, 2-((4-Methoxy-N-(3,4,5-trimethoxyphenyl)phenyl)sulfonamido)ethyl-4-ethylpiperazine-1-carbodithioate]	2.35 ± 0.7 µM	1.37 ± 0.16 µM	1.03 ± 0.28 µM	2.13 µM	150 to 152 °C	0.127 µM	–	–	> 64 µM	more pronounced depolymerisation effects	–	–	–	–	–	–	over 8 fold
COc1ccc(S(=O)(=O)N(CCSC(=S)N2CCN(c3ccc(F)cc3)CC2)c2cc(OC)c(OC)c(OC)c2)cc1 [Compound 17e, 2-((4-Methoxy-N-(3,4,5-trimethoxyphenyl)phenyl)sulfonamido)ethyl-4–(4-fluorophenyl)piperazine-1-carbodithioate]	6.17 ± 1.05 µM	9.18 ± 1.32 µM	7.57 ± 0.96 µM	–	166 to 168 °C	–	–	–	–	–	–	–	–	–	–	–	–
COc1ccc(S(=O)(=O)N(CCSC(=S)N2CCN(C(=O)OC(C)(C)C)CC2)c2cc(OC)c(OC)c(OC)c2)cc1 [Compound 17f, Tert-butyl-4-(((2-((4-methoxy-N-(3,4,5-trimethoxyphenyl)phenyl)sulfonamido)ethyl)thio)carbonothioyl)piperazine-1-carboxylate]	4.46 ± 1.38 µM	2.32 ± 1.63 µM	6.67 ± 1.25 µM	3.07 µM	162 to 164 °C	> 0.2 µM	–	35.7%	–	moderately depolymerised interphase microtubules	–	–	–	–	–	–	–
COc1ccc(S(=O)(=O)N(CCSC(=S)N2CCN(CCO)CC2)c2cc(OC)c(OC)c(OC)c2)cc1 [Compound 17c, 2-((4-Methoxy-N-(3,4,5-trimethoxyphenyl)phenyl)sulfonamido)ethyl-4–(2-hydroxyethyl)piperazine-1-carbodithioate]	10.8 ± 1.01 µM	7.09 ± 1.33 µM	9.17 ± 2.18 µM	–	146 to 148 °C	–	–	–	–	–	–	–	–	–	–	–	–
